Data: patent publication US9822382B2, “Process for making ethanol by fermentation” (Evonik Degussa GmbH, priority 2014, dated 2017)

Columns and labels:
Rod bacteria = Rod bacteria cell count and infection rate, laboratory treatment of yeast cream and fermentation; format: cell-based
Experimental: (§1) Bacterial and yeast cell counts, yeast cell viability and yeast flocculation were determined as described in A. J. Oliveira et al., Curso de treinamento em microbiologia, Piracicaba: FERMENTEC and ESALQ, 1996 and in A. J. Oliveira et al., Métodos para o controle microbiológico na produção de açúcar e álcool, Piracicaba: FERMENTEC, FEALQ and ESALQ, 1996. Bacterial infection rates were calculated as the ratio of the rod bacteria cell count and the yeast cell count.
(§2) The examples were carried out with a yeast cream obtained by separating yeast from a fermented sugar cane mush from a sugar cane ethanol production mill operating with batch fermentation and yeast recycle. The yeast cream was diluted with water to a yeast cell content of about 24% by weight and the pH of the diluted yeast cream was adjusted to a value of 1.8 by adding sulfuric acid.
(§3) Then 322 ml of acidified diluted yeast cream were placed in a vessel and 678 ml of cane must having a pH of 6.2 were added with mixing in 5 portions with 1 h intervals between additions. Fermentation of the cane must with the acidified diluted yeast cream was carried out at 33° C. for 21 h. The final pH of the fermented mash was 4.8.
(§4) In example 2, equilibrium peroxyacetic acid PERACLEAN® 15 of Evonik was added to the acidified diluted yeast cream in an amount of 50 mg/l and the resulting treated yeast concentrate was kept at 30° C. for 1.7 hours before it was analyzed microbiologically. Thereafter, fermentation was carried out as in example 1.
(§5) Examples 1 and 2 were repeated without adding peroxyacetic acid in example 3 and with addition of equilibrium peroxyacetic acid PERACLEAN® 15 in an amount of 60 mg/l peroxyacetic acid in example 4. The treated yeast cream was kept at 30° C. for 2 hours before it was analyzed microbiologically and fermentation was started.
(§6) The examples were carried out with a yeast cream obtained by separating yeast from a fermented sugar cane mush from a sugar cane ethanol production mill that operates with fed-batch fermentation and yeast recycle. The yeast cream was diluted with water to a yeast cell content of about 27% by weight. The pH of the diluted yeast cream was 4.0.
(§7) In example 6, equilibrium peroxyacetic acid PERACLEAN® 15 of Evonik was added to the diluted yeast cream in an amount of 50 mg/l and the resulting treated yeast concentrate was kept at 30° C. for 2.3 hours before it was analyzed microbiologically.
(§8) In example 8, the pH of the diluted yeast cream was adjusted as in example 7, equilibrium peroxyacetic acid PERACLEAN® 15 of Evonik was added to the acidified diluted yeast cream in an amount of 50 mg/l and the resulting treated yeast concentrate was kept at 30° C. for 2.0 hours before it was analyzed microbiologically.

Yeast = Yeast cell count and yeast cell viability, laboratory treatment of yeast cream and fermentation; format: cell-based; conditions: for viability at 50 µg/mL / viability at 50 ppm / viability at 60 ppm: Saccharomyces cerevisiae
Experimental: as §1, §2, §3, §4, §5, §6, §7, §8

[1] = Example 2, 50 ppm, pH 1.8, fermented mash after 21 h
[2] = Example 2, 50 ppm, pH 1.8, treated yeast concentrate, 30° C. 1.7 hours
[3] = Example 4, 60 ppm, pH 1.8, fermented mash after 19 h
[4] = Example 4, 60 ppm, pH 1.8, treated yeast concentrate, 30° C. 2 hours
[5] = Example 6, 50 mg/l, no pH adjustment (pH 4.17), treated yeast concentrate, 30° C. 2.3 hours
[6] = Example 8, 50 mg/l, pH adjusted to 2.0 with sulfuric acid (pH 2.40), treated yeast concentrate, 30° C. 2.0 hours
[7] = treatment of the yeast concentrate at pH 1.8 before using it for the fermentation

## CC(=O)OO [peroxyacetic acid]
Rod bacteria; [1]
  Infection rate in %: 2.6%
  Rod bacteria cells/ml: 6.1*10^6 cells/ml
Rod bacteria; [2]
  Infection rate in %: 0.5%
  Rod bacteria cells/ml: 2.9*10^6 cells/ml
Rod bacteria; [3]
  Infection rate in %: 0.1%
  Rod bacteria cells/ml: 0.22*10^6 cells/ml
Rod bacteria; [4]
  Infection rate in %: 0.3%
  Rod bacteria cells/ml: 1.8*10^6 cells/ml
Rod bacteria; [5]
  Infection rate in %: 8.3%
  Rod bacteria cells/ml: 68*10^6 cells/ml
Rod bacteria; [6]
  Infection rate in %: 1.7%
  Rod bacteria cells/ml: 14*10^6 cells/ml
Rod bacteria; pH not adjusted to the claimed range by addition of acid (table 5)
  effectiveness of treatment of the yeast concentrate against bacterial contamination: ineffective
Rod bacteria; table 5, Examples 5 to 8
  combined effect of pH adjustment with mineral acid and peroxyacetic acid addition: synergistic effect
Rod bacteria; [7]
  bacterial contamination of the fermented mash: effective in preventing bacterial contamination
Yeast; [1]
  Yeast cells/ml: 230*10^6 cells/ml
  viability at 50 ppm: 81%
Yeast; [2]
  Yeast cells/ml: 550*10^6 cells/ml
  viability at 50 ppm: 73%
Yeast; [3]
  Yeast cells/ml: 180*10^6 cells/ml
  viability at 60 ppm: 80%
Yeast; [4]
  Yeast cells/ml: 710*10^6 cells/ml
  viability at 60 ppm: 83%
Yeast; [5]
  Yeast cells/ml: 820*10^6 cells/ml
  viability at 50 µg/mL: 86%
Yeast; [6]
  Yeast cells/ml: 830*10^6 cells/ml
Yeast; pH 2.4, Example 8, 50 mg/l, pH adjusted to 2.0 with sulfuric acid (pH 2.40), treated yeast concentrate, 30° C. 2.0 hours
  viability at 50 µg/mL: 88%
Yeast; [7]
  yeast viability in the fermentation: does not affect yeast viability
